Test results: patent publication US8946201B2, “Methods for inhibiting TGF-β” (Saint Louis University, priority 2007, dated 2015)

Key:
TβR-I and TβR-II = test: Lipid raft / non-lipid raft localization by sucrose density gradient ultracentrifugation, Mv1Lu cells; assay type: cell-based, mink; conditions: for plasma membrane microdomain localization of TβR-II (FIG. 5F): 1 μM statin 16 hr, nystatin 25 μg/ml or cholesterol 50 μg/ml 1 hr
Method: (A, B, C, D) Cells were treated with or without 50 μg/ml cholesterol (A,B,C,D) or several concentrations of cholesterol, as indicated in the presence and absence of 1% β-CD (E) at 37° C. for 1 hr and further incubated with (C,D) and without (A,B) 50 pM TGF-β1 for 1 hr. The cell lysates from these treated cells were subjected to sucrose density gradient ultracentrifugation. After ultracentrifugation, fractions were collected and analyzed by 7.5% SDS-PAGE followed by Western blot analysis using antibodies to TβR-I, TβR-II and caveolin-1. […] Fractions 4 and 5 represent fractions containing lipid rafts/caveolae whereas fractions 7 and 8 represent non-lipid raft fractions.
(F, G) Cells were treated with or without 1 μM lovastatin/fluvastatin or nystatin (25 μg/ml)/cholesterol (50 μg/ml) at 37° C. for 16 hr or 1 hr, respectively. The treated cells were directly analyzed by sucrose density gradient ultracentrifugation analysis (F) or further incubated with 50 pM TGF-β at 37° C. for several time periods as indicated (G). Western blot analysis of the sucrose density gradient fractions (F) and of TGF-β1-treated cell lysates (G) was performed using antibody to TβR-II. The relative levels of TβR-II and α-actin were quantified by densitometry. Fractions ⅘ and 7 represent lipid raft/caveolae and non-lipid raft fractions, respectively. The asterisk (*) indicates the increased level of TβR-II in the fraction (F). The ratio of the relative intensities of TβR-II and α-actin in cells treated without TGF-β1 was taken as 100% of the TβR-II level. A representative of a total of three independent analyses is shown (G, top). The quantitative data from three independent analyses is shown (G, bottom). The data bar represents the mean±S.D.
Mv1Lu, CHO-K1, or NRK cells were grown to near confluence in 100-mm dishes (5-10×10^6 per dish). Cells were incubated with cholesterol ([…]) at 37° C. for 1 hours and then incubated with TGF-β1 (100 pM) for 1 hr. After two washes with ice-cold phosphate-buffered saline, cells were scraped into 0.85 ml of 500 mM sodium carbonate, pH 11.0. Homogenization was carried out with 10 strokes of a tight-fitting Dounce homogenizer followed by three 20-s bursts of ultrasonic disintegrator, (Soniprep 150; Fisher Scientific) to disrupt cellular membranes as described previously (32). The homogenates were adjusted to 45% sucrose by addition of 0.85 ml of 90% sucrose in 25 mM 2-(N-morpholino) ethanesulfonic acid, pH 6.5, 0.15 M NaCl (MBS), and placed at the bottom of an ultracentrifuge tube. […] Ten 0.5-ml fractions were collected from the top of the tubes, and a portion of each fraction was analyzed by SDS-PAGE followed by Western blot analysis using antibodies to TβR-I and TβR-II and caveolin-1. […]

PAI-1 expression = test: TGF-β1-induced PAI-1 expression, Northern blot, Mv1Lu cells; assay type: cell-based, mink; conditions: for enhancement of PAI-1 expression: 1 μM, 16 hr
Method: (A, B, C, D, E, F) Cells were treated with 50 μg/ml cholesterol (A, B, C, D) and 50 μg/ml LDL (D) at 37° C. for 1 hr or with 1 μM fluvastatin or lovastatin (E) or several concentrations of fluvastatin (F) at 37° C. for 16 hr and then further incubated with increasing concentrations (as indicated) of TGF-β1 (A, B, C, E) or 50 pM TGF-β1 (D,F) for 2 hr. Northern blot analysis of PAI-1 and G3PDH was performed. A representative of a total of three analyses is shown (a). The relative intensities of the transcripts were quantified with a PhosphoImager. The ratio of the relative intensities of PAI-1 and G3PDH transcripts in cells treated without TGF-β1 and cholesterol, LDL or statins on the blot was taken as 1 fold or 100% of PAI-1 expression. The quantitative data from three independent analyses is shown (b). […] (G) Mv1Lu cells stably expressing a luciferase reporter gene driven by the PAI-1 promoter (MLECs-clone 32) were treated with increasing concentrations (as indicated) of cholesterol at 37 EC for 1 hr (a) or with 1 μM lovastatin at 37° C. for 16 hr (b) and then further incubated with 50 pM TGF-β for 7 hr. The luciferase activity in cells treated without cholesterol was taken as 100% (a). […] (H) Cells were incubated with 0.0625 and 0.125 pM TGF-β1 in the presence of increasing concentrations of cholesterol, as indicated. […] The experiments were carried out in triplicate.

| Structure (SMILES) | plasma membrane microdomain localization of TβR-II (FIG. 5F) (TβR-I and TβR-II) | localization of TβR-I and TβR-II in plasma membrane fractions (TβR-I and TβR-II; 50 μg/ml, 1 hr, fractions 4 and 5) | suppression of TGF-β1-stimulated PAI-1 expression (PAI-1 expression; 50 μg/ml, TGF-β1 2 to 100 pM, Mv1Lu cells) | effect on the LDL and cholesterol suppression of PAI-1 expression (PAI-1 expression; 25 μg/ml nystatin present, data not shown) | enhancement of PAI-1 expression (PAI-1 expression; 10 pM TGF-β1, Mv1Lu cells) | enhancement of PAI-1 expression (PAI-1 expression; 50 pM TGF-β1, Mv1Lu cells) [fold] |
| --- | --- | --- | --- | --- | --- | --- |
| CC(C)CCC[C@@H](C)[C@H]1CC[C@H]2[C@@H]3CC=C4C[C@@H](O)CC[C@]4(C)[C@H]3CC[C@]12C [cholesterol] | increased the localization of TβR-II in lipid rafts/caveolae | enriched in the lipid raft/caveolae fractions | 65-70% |  |  |  |
| C[C@@H]1[C@H](O)[C@@H](C)/C=C/C=C/CC/C=C/C=C/C=C/C=C/C(O[C@H]2O[C@H](C)[C@@H](O)[C@H](N)[C@@H]2O)CC2O[C@](O)(CC(O)C(O)CCC(O)CC(O)CC(O)CC(=O)O[C@H]1C)CC(O)C2C(=O)O (some centres unmarked) [nystatin, reference compound] | increased the localization of TβR-II in non-lipid raft microdomains |  |  | abolished |  |  |
| CC[C@H](C)C(=O)O[C@H]1C[C@@H](C)C=C2C=C[C@H](C)[C@H](CC[C@@H]3C[C@@H](O)CC(=O)O3)[C@H]21 [lovastatin, reference compound] | increased the localization of TβR-II in non-lipid raft microdomains |  |  |  | did not enhance | 3 |
